Experimental data reported in patent US20250008956A1, “COMPOSITIONS AND A METHOD OF IMPROVING PLANT HEALTH AND CONTROLLING INSECTS” (UPL LIMITED, priority 2021, published 2025).

Key:
Assay type in all cases: in vivo
rice crop [1] = assay: Dead heart count in rice crop; conditions: GR, g a.i./ha: Flupyrimin 150, Cartap 1000, Cartap + EMA 581, Fipronil 60; for Dead hearts (count) 7 DAA: 7 days after application; for Dead hearts (count) 14 DAA: 14 days after application; for Dead hearts (count) 21 DAA: 21 days after application; for Dead hearts (count) 28 DAA: 28 days after application; for Dead hearts (count) Pre-count: pre-count before application
Excerpt: (§1) Injury in plants is often first noticed when the youngest partially unfurled leaf of the plant begins to whiter and die, resulting in a condition called dead heart. Dead hearts can be caused by any stem borer. Typical bore holes will be seen on the stem. Usually, a single larva is seen inside the stem. It remains inside the stem and feeds on the internal contents. The shoot of the affected plant can be pulled off easily, a symptom known as dead heart. At maturity, the grains become chaffy, which is known as white ear and eventually the whole plant finally dies.
(§2) The phytotonic effect of flupyrimin in rice crop in terms of the dead heart count, number of ears, productive tillers/hill and the hill stability were determined.
The observations were made at 7DAA, 14 DAA, 21 DAA and 28 DAA (days after application).

rice crop [2] = assay: White ear count in rice crop; conditions: GR, g a.i./ha: Flupyrimin 150, Cartap 1000, Cartap + EMA 581, Fipronil 60
Excerpt: as §1, §2

rice crop [3] = assay: Number of tillers and productive tillers per hill in rice crop; conditions: for No. of tillers/hill at 45 DAA / No. of productive tillers/hill at heading: rice, GR, g a.i./ha: Flupyrimin 150, Cartap 1000, Cartap + EMA 581, Fipronil 60
rice = assay: Hill stability test (tiller sturdiness, girth) in rice; conditions: flupyrimin composition (2% GR)
Experimental: The hill stability test was performed to determine the tiller strength of the hill. Accordingly, rice was subjected to flupyrimin treatment at 23 days after transplanting (DAT) and observations were taken at 20 DAA (days after application).
Hill stability is an important plant growth feature, as it protects the crop from lodging. It becomes especially important in tall varieties and in areas prone to high winds, cyclones, heavy rains etc. Due to hill stability, the plant is able to sustain the natural forces. Hill stability is also important in case of high pest and disease pressure, which makes the plant weak and loses the tiller strength.

wheat [4] = assay: % germination of wheat seed after seed treatment; conditions: seed treatment 500 g/L FS
Experimental: The present inventors have observed the phytotonic effect of flupyrimin in wheat by determining the % germination, plant height, root length (cm) and plant vigor The seeds were treated with 500 g/L flupyrimin flowable concentrate (FS) formulation. […]

wheat [5] = assay: Plant height, root length, tillers and plant vigor in wheat after seed treatment
Experimental: The present inventors have observed the phytotonic effect of flupyrimin in wheat by determining the % germination, plant height, root length (cm) and plant vigor The seeds were treated with 500 g/L flupyrimin flowable concentrate (FS) formulation. The observations were made at 30 DAS and 45 DAS (days after seeding).

wheat [6] = assay: Yield and test weight in wheat after seed treatment; design: Test weight (1000 grain weight): unit not given here
mustard = assay: Plant height, root length and plant vigor in mustard after seed treatment; conditions: 500 g/L FS
Experimental: The present inventors have observed the phytotonic effect of flupyrimin in mustard seeds by determining the % germination, plant height, root length (cm) and plant vigor. The seeds were treated with 500 g/L flupyrimin flowable concentrate (FS) formulation. The observations were made at 30 DAS and 45 DAS (days after seeding).

[7] = tested on: Nilaparvata lugens BPH (Brown plant hopper); assay: Brown plant hopper infestation after application; conditions: up-to 45 Days After application of composition comprising flupyrimin and/or a salt thereof
[8] = 1.2 g AI/kg of seed (2.4 ml/kg)
[9] = 2.0 g AI/kg of seed (4.0 ml/kg)

CN(C)C(CSC(N)=O)CSC(N)=O [Cartap]
Dead hearts (count) 7 DAA (rice crop [1]): 0.21 count | Dead hearts (count) 14 DAA (rice crop [1]): 1.54 count | Dead hearts (count) 21 DAA (rice crop [1]): 3.08 count | Dead hearts (count) 28 DAA (rice crop [1]): 2.17 count | Dead hearts (count) Pre-count (rice crop [1]): 0.00 count | White ear/hill at heading (rice crop [2]): 2.33 | No. of tillers/hill at 45 DAA (rice crop [3]): 18.07 | No. of productive tillers/hill at heading (rice crop [3]): 13.77

N#Cc1nn(-c2c(Cl)cc(C(F)(F)F)cc2Cl)c(N)c1[S+]([O-])C(F)(F)F (centres unmarked) [Fipronil]
Dead hearts (count) 7 DAA (rice crop [1]): 0.00 count | Dead hearts (count) 14 DAA (rice crop [1]): 0.40 count | Dead hearts (count) 21 DAA (rice crop [1]): 2.19 count | Dead hearts (count) 28 DAA (rice crop [1]): 1.24 count | Dead hearts (count) Pre-count (rice crop [1]): 0.00 count | White ear/hill at heading (rice crop [2]): 1.27 | No. of tillers/hill at 45 DAA (rice crop [3]): 19 | No. of productive tillers/hill at heading (rice crop [3]): 15.63

O=C(/N=c1\ccccn1Cc1ccc(Cl)nc1)C(F)(F)F [Flupyrimin, N-[(E)-1-(6-chloro-3-pyridinylmethyl)pyridin-2 (1H)-ylidene]-2,2,2-trifluoroacetamide]
Dead hearts (count) 7 DAA (rice crop [1]): 0.00 count | Dead hearts (count) 14 DAA (rice crop [1]): 0.00 count | Dead hearts (count) 21 DAA (rice crop [1]): 0.04 count | Dead hearts (count) 28 DAA (rice crop [1]): 0.01 count | Dead hearts (count) Pre-count (rice crop [1]): 0.00 count | White ear/hill at heading (rice crop [2]): 0.17 | Greater number of tillers against the market standards (average) (rice crop [3]; rice crop, granular formulation): 2-3 | No. of tillers/hill at 45 DAA (rice crop [3]): 22.47 | No. of productive tillers/hill at heading (rice crop [3]): 19.63 | Girth of tillers compared to untreated rice (rice): almost twice the girth | % Germination of Wheat Seed 6 DAS (wheat [4]; [8]): 92.0% | % Germination of Wheat Seed 9 DAS (wheat [4]; [8]): 93.0% | % Germination of Wheat Seed 12 DAS (wheat [4]; [8]): 95.5% | % Germination of Wheat Seed 6 DAS (wheat [4]; [9]): 92.0% | % Germination of Wheat Seed 9 DAS (wheat [4]; [9]): 93.8% | % Germination of Wheat Seed 12 DAS (wheat [4]; [9]): 96.0% | No. of tillers/plant 30 DAS (wheat [5]; [8]): 5.8 | Plant Height (cm) 30 DAS (wheat [5]; [8]): 42.4 cm | Plant Vigor (0-5 Index scale) 30 DAS (wheat [5]; [8]): 5.0 0-5 Index scale | Root length (cm) 30 DAS (wheat [5]; [8]): 11.5 cm | No. of tillers/plant 45 DAS (wheat [5]; [8]): 6.4 | Plant Height (cm) 45 DAS (wheat [5]; [8]): 57.9 cm | Plant Vigor (0-5 Index scale) 45 DAS (wheat [5]; [8]): 5.0 0-5 Index scale | Root length (cm) 45 DAS (wheat [5]; [8]): 12.3 cm | No. of tillers/plant 30 DAS (wheat [5]; [9]): 5.8 | Plant Height (cm) 30 DAS (wheat [5]; [9]): 43.3 cm | Plant Vigor (0-5 Index scale) 30 DAS (wheat [5]; [9]): 5.0 0-5 Index scale | Root length (cm) 30 DAS (wheat [5]; [9]): 11.8 cm | No. of tillers/plant 45 DAS (wheat [5]; [9]): 6.5 | Plant Height (cm) 45 DAS (wheat [5]; [9]): 58.1 cm | Plant Vigor (0-5 Index scale) 45 DAS (wheat [5]; [9]): 5.0 0-5 Index scale | Root length (cm) 45 DAS (wheat [5]; [9]): 12.7 cm | Test weight (1000 grain weight) (wheat [6]; [8]): 55.3 | Yield (Qt/ha) (wheat [6]; [8]): 37.4 Qt/ha | Test weight (1000 grain weight) (wheat [6]; [9]): 56.5 | Yield (Qt/ha) (wheat [6]; [9]): 37.8 Qt/ha | Plant Height (cm) 30 DAS (mustard; 4 g AI/kg of seed (8 ml/kg)): 21.7 cm | Plant Vigor (0-5 Index scale) 30 DAS (mustard; 4 g AI/kg of seed (8 ml/kg)): 5.0 0-5 Index scale | Root length (cm) 30 DAS (mustard; 4 g AI/kg of seed (8 ml/kg)): 18.2 cm | Plant Height (cm) 45 DAS (mustard; 4 g AI/kg of seed (8 ml/kg)): 93.2 cm | Plant Vigor (0-5 Index scale) 45 DAS (mustard; 4 g AI/kg of seed (8 ml/kg)): 5.0 0-5 Index scale | Root length (cm) 45 DAS (mustard; 4 g AI/kg of seed (8 ml/kg)): 20.8 cm | Plant Height (cm) 30 DAS (mustard; 6 g AI/kg of seed (12 ml/kg)): 22.8 cm | Plant Vigor (0-5 Index scale) 30 DAS (mustard; 6 g AI/kg of seed (12 ml/kg)): 5.0 0-5 Index scale | Root length (cm) 30 DAS (mustard; 6 g AI/kg of seed (12 ml/kg)): 18.3 cm | Plant Height (cm) 45 DAS (mustard; 6 g AI/kg of seed (12 ml/kg)): 95.6 cm | Plant Vigor (0-5 Index scale) 45 DAS (mustard; 6 g AI/kg of seed (12 ml/kg)): 5.0 0-5 Index scale | Root length (cm) 45 DAS (mustard; 6 g AI/kg of seed (12 ml/kg)): 21.1 cm | Nilaparvata lugens BPH infestation [7]: no Nilaparvata lugens BPH (Brown plant hopper) infestation is found
